# According to patent US10426775B2, “Methods for treating Friedreich's ataxia with etravirine” (Fratagene Therapeutics srl, priority 2017, dated 2019):
# How the values were obtained:
# Format in all cases: cell-based, human
# frataxin-deficient cells = test: Toxic effect and cell viability of etravirine-treated frataxin-deficient cells; details: any of the tested doses
# frataxin = test: Western blot of frataxin in lymphoblastoid cell lines derived from FRDA patients
# Protocol: (§1) Lymphoblastoid cell lines from one healthy subject [GM16215] and 7 FRDA patients [GM16228, GM16203, GM16214, GM16223, GM16210, GM16205, GM16216], and primary fibroblasts from 2 FRDA patients [GM02816 and GM04078], were obtained from NIGMS Human Genetic Cell Repository, Coriell Institute for Medical Research (Camden, N.J., USA). Lymphoblasts and fibroblasts were grown at 37° C. and 5% CO2 and were respectively cultured in RPMI or DMEM, supplemented with 15% FBS, […] penicillin/streptomycin and 2 mM L-glutamine.
# For the validation steps, etravirine (TMC125) was purchased from Selleckchem and was dissolved in DMSO at a stock concentration of 10 mM. HEK-293 Flp-In cells, stably overexpressing frataxin, were treated with the drug (or only DMSO) for 24 hours at final concentration of 10 μM. FRDA cells were treated with different concentration of etravirine. For all drug (and no drug) treatments, the final concentration of DMSO in the cell culture medium was 0.1%.
# Total cell extracts were prepared in lysis buffer (50 mM Tris-HCl, pH 7.5, 150 mM NaCl, 1% Igepal CA-630, 5 mM EDTA, 5 mM EGTA) supplemented with complete protease inhibitor cocktail (Roche Diagnostics, Indianapolis, Ind., USA). Lysates were clarified by centrifugation and supernatants were mixed with 4× Laemmli sample buffer (50 mM Tris pH 6.8, 2% SDS, 10% gliycerol, 0.0025% bromophenol blue, 5% beta-mercaptoethanol), boiled for 5 min, resolved by precast 12% SDS-PAGE gels (Bio-Rad Laboratories, Hercules, Calif., USA) and transferred to […] nitrocellulose membrane (TRANS-BLOT® TURBO™ Transfer pack, Bio-Rad). Membranes were blocked with 5% non-fat dry milk, 0.1% Tween 20 in phosphate-buffered saline (PBS) and incubated with the indicated primary and secondary antibodies. The immunoreactive bands were detected by ECL (GE Healthcare, Chalfont St. Giles, UK) and imaged with a ChemiDoc XRS system (Bio-Rad). Densitometry analysis was performed using the ImageLab 4.1 Software (Bio-Rad). To analyse the western blot densitometry results, a Student's t test was applied. All values are expressed as means±1 S.E.M.
# In order to evaluate whether the precursor that readily accumulates upon etravirine treatment can be converted into the mature functional form of frataxin, we tested the effect of different doses of etravirine, ranging from 100 nM to 10 μM, on a lymphoblastoid cell line, GM16203, derived from an FRDA patient. The cells were treated with the indicated doses of etravirine for 24 hours. Cell extracts were resolved on SDS-PAGE and analyzed by western blot analysis with anti-frataxin and anti-tubulin, as a loading control. We tested different doses, ranging from 100 nM to 3 μM, on the lymphoblastoid cell line GM16203.
# A) FRDA lymphoblast cells, GM16203, were treated with the indicated doses of etravirine for 24 hours. Cell extracts were resolved on SDS-PAGE and analyzed by western blot analysis with anti-frataxin (lower panel) and anti-tubulin (upper panel), as a loading control. Int: intermediate frataxin; mat: mature frataxin; tub: tubulin. B) The graph represents the relative mature frataxin levels measured by densitometric analysis of independent blots and normalized with tubulin levels. Data represent the average of three independent experiments±S.E.M. p-values were calculated with Student's t-test (*p<0.05; **p<0.01)
# We chose the minimal effective dose (300 nM) to evaluate the efficacy of etravirine over a broad range of cells derived from FRDA patients. In particular, we analysed 7 lymphoblastoid cell lines derived from FRDA patients and primary fibroblasts derived from two different FRDA patients. Each cell line was treated with 300 nM etravirine for 24 hours. Cell extracts were resolved on SDS-PAGE and analyzed by western blot analysis with anti-frataxin and anti-tubulin, as a loading control. Etravirine promotes increase in intermediate and mature frataxin levels in all the cell lines tested upon 24 hours of treatment (FIGS. 3A-3B). […]
# mature frataxin = test: Western blot of frataxin in primary fibroblasts derived from FRDA patients; details: 300 nM etravirine, 24 hours
# Protocol: as §1
# For the validation steps, etravirine (TMC125) was purchased from Selleckchem and was dissolved in DMSO at a stock concentration of 10 mM. […]
# Total cell extracts were prepared in lysis buffer (50 mM Tris-HCl, pH 7.5, 150 mM NaCl, 1% Igepal CA-630, 5 mM EDTA, 5 mM EGTA) supplemented with complete protease inhibitor cocktail (Roche Diagnostics, Indianapolis, Ind., USA). […] The immunoreactive bands were detected by ECL (GE Healthcare, Chalfont St. Giles, UK) and imaged with a ChemiDoc XRS system (Bio-Rad). […] All values are expressed as means±1 S.E.M.
# We chose the minimal effective dose (300 nM) to evaluate the efficacy of etravirine over a broad range of cells derived from FRDA patients. In particular, we analysed 7 lymphoblastoid cell lines derived from FRDA patients and primary fibroblasts derived from two different FRDA patients. […]
structure (smiles),measurement,setting,value
Cc1cc(C#N)cc(C)c1Oc1nc(Nc2ccc(C#N)cc2)nc(N)c1Br [etravirine],toxic effect on frataxin-deficient cells,frataxin-deficient cells,does not show any toxic effect
same,cell viability,frataxin-deficient cells; frataxin-deficient cells,does not affect cell viability
same,frataxin precursor accumulation,"frataxin; FRDA lymphoblast cell line GM16203, 10 μM etravirine",can also be detected
same,average fold increase in mature frataxin levels,"frataxin; GM16203 lymphoblasts (830 GAA repeats), 300 nM etravirine, 24 hours",1.41 fold
same,minimal effective dose (sufficient for a significant increase in intermediate and mature frataxin forms),"frataxin; GM16203 lymphoblasts, 24 hours, doses 100 nM to 10 μM",300 nM
same,frataxin form induced at the highest dose,"frataxin; GM16203 lymphoblasts, 24 hours, etravirine at 10 (μM)",mostly induces precursor accumulation
same,average fold increase in mature frataxin levels,"frataxin; GM16205 lymphoblasts (530 GAA repeats), 300 nM etravirine, 24 hours",1.58 fold
same,average fold increase in mature frataxin levels,"frataxin; GM16210 lymphoblasts (580 GAA repeats), 300 nM etravirine, 24 hours",1.22 fold
same,average fold increase in mature frataxin levels,"frataxin; GM16214 lymphoblasts (700 GAA repeats), 300 nM etravirine, 24 hours",1.71 fold
same,frataxin accumulation in treated patient cells vs unaffected carrier cells,"frataxin; GM16214 treated vs GM16215 untreated, 24 hours, 300 nM etravirine",comparable to frataxin levels in untreated cells derived from healthy control
same,average fold increase in mature frataxin levels,"frataxin; GM16216 lymphoblasts (500 GAA repeats), 300 nM etravirine, 24 hours",1.21 fold
same,average fold increase in mature frataxin levels,"frataxin; GM16223 lymphoblasts (630 GAA repeats), 300 nM etravirine, 24 hours",1.22 fold
same,average fold increase in mature frataxin levels,"frataxin; GM16228 lymphoblasts (840 GAA repeats), 300 nM etravirine, 24 hours",1.62 fold
same,overall increase in mature frataxin levels in cells derived from FRDA patients,"frataxin; all FRDA lymphoblastoid lines and fibroblasts tested, 300 nM etravirine, 24 hours",50%
same,average fold increase in mature frataxin levels,mature frataxin; GM03816 fibroblasts (380 GAA repeats),1.65 fold
same,average fold increase in mature frataxin levels,mature frataxin; GM04078 fibroblasts (541 GAA repeats),1.71 fold
